The subject of one experiment is wethers. The experiment can be described thus: In vivo digestibility trial, timothy hay sprayed with Tween 80. The settings on record: sheep; about 0.3% Tween 80 in the ration. On the procedure:
Four […] weighing (72.5±15.0 kg) fitted with both rumen and duodenal cannula, were offered chopped medium quality timothy hay ad libitum. The hay was either sprayed with 500 ml water or 50 ml of […] dissolved in 500 ml of water. The feed was offered in two equal portions, at 08:30 and 20:30 hr. Water was available ad libitum. The experiment was designed as a 2×2 latin square with two 14-day adaptation, two 7-day collection periods. Estimates of the rates of passage of the two treated hays were made using chromium mordanted fibre (Cr) for the particulate phase and cobalt-ethylene diaminetetracetic acid (Co-EDTA) for the liquid phase. The method of Uden et al., “Investigation of chromium, cerium and cobalt as markers in digesta: Rate of Passage studies,” J. Sci. of Food and Agriculture 31:625-632 (1980), was used in the preparation of both markers. The sheep were adapted to the feed in individual pens, and then moved into digestibility cages for total collection and marker infusion. During the collection period, records of feed intake, faecal and urine output were maintained. 250 g subsamples of the faeces were collected daily, subsampled for DM determination, while the rest was dried under a drought oven. Urine was collected under 1N sulphuric acid. On the last day of the collection period, each sheep was given 50 g of Cr-mordanted fibre 1 hr prior to the evening feeding. In addition, 250 ml of Co-EDTA (0.1 g/ml) was infused intraruminally and the animals were then fed. Rumen digesta and duodenal sampling commenced 4 hr after dosing and continued at the same interval for 96 hr. Two samples of rumen fluid were collected: The first rumen fluid samples (30 ml) were preserved for microbial protein estimations by adding 7.5 ml of 0.9% NaCl in 37% formaldehyde solution. The samples were then stored at -20° C. after the preparation of a bacterial pellet by centrifugation at 27,000 g max for 15 min. A portion of the second rumen fluid and faecal samples was dried at 80° C. and ground in a coffee grinder (Braun, Inc. MA) for DM and Cr determination (Uden et al., 1980). Cr concentration in the samples was determined in duplicate by atomic absorption spectrophotometer (Perkin Elmer 560) using Cr standards (Fisher Scientific Co. NJ). The rest of the second rumen fluid sample was centrifuged at 10,000 g max for 10 min and the supernatants analyzed directly for cobalt using 0.1N HCL as the blank. Standards were prepared using cobalt chloride (Fisher Scientific Co. NJ). Marker concentrations were expressed per gram of dry sample. Other analyses included: acid and neutral detergent fibre (Goering and Van Soest, “Forage fiber analysis,” Agric. Handbook No. 379, p. 12 (1970)), total N (Parkinson and Allen, “A wet oxidation procedure suitable for the determination of nitrogen and mineral nutrients in biological materials,” Comm. Soil Sci. Plant Anal. 6:1 (1975)) for RNA concentrations of the rumen bacterial pellets and duodenal samples.

The test system of experiment [1] is rumen microbial cells enzyme source. The experiment is described as follows: Microbial protein adsorption to ground barley straw. Also noted: species or system cows. As for the experimental part:
For the cellulose adhesion tests, the microbial enzyme source was resuspended and tested for adhesion on to a cellulose. substrate (barley straw, with 4% CP and ground through 0.5 mm sieve). […] 0.1 g of the straw in 5 ml of a bacterial cell-enzyme inoculum suspension, and then following the supernatant protein change with time. Readings were taken at 10, 20, 30, 60, and 120 min. At the end of the adsorption period, the assay contents were centrifuged at 2500 g max for 10 min to precipitate the solids, and the protein in the supernatant was precipitated out by 15% TCA solution and quantified by the Bicichoninic method (Smith et al., “Measurement of protein using bicinchonic acid,” Anal. Biochem. 150:76 (1984)). […]

For experiment [2], the system named is rumen microbial proteinases. The experiment can be described thus: Protease activity of mixed rumen microbial cell enzyme source (casein substrate). Type of experiment: biochemical, cows. As for the experimental part:
Two rumen-fistulated, nonlactating cows averaging 623±12.5 kg in weight were fed 5 kg dry matter (DM) of low quality timothy hay twice daily. About 2.5L of rumen fluid was collected through the fistula 4 hrs after the morning feeding at 07:00 hrs. Bulk feed particles were removed by sieving the fluid through a 0.5 mm strain. The fluid was then composited and then stored in a prewarmed (37° C.) thermal container.
A microbial powder was prepared using the acetone-butanol extraction procedure outlined by Mahadevan et al., “Preparation of protease from mixed rumen microorganisms and its use for the in vitro determination of true protein in feedstuffs,” Can. J. Anim. Sci. 67:55 (1987). About 500 g of this powder was prepared and stored at −20° C. Extraction of the proteases was accomplished by stirring 250 g of the powder with 1L of 4° C. cold water (for 1 hr) and then proceeding along Mahadevan's extraction procedure. Only extracts from the filtration with an XM-300 Amicon Filter, (approx. 300 000 molecular weight cutoff—under nitrogen gas), were made, washed twice with distilled water and the retentate freeze dried. This was referred to as the mixed microbial cell enzyme source. It was used in the protein adhesion tests and also in the parallel thiol and protease activity determinations.
Ten grams of the mixed microbial cell enzyme was dissolved in 100 ml warm (37° C.) 0.1 M phosphate buffer, pH 6.8, and used as an enzyme inoculant. The assay matrix consisted of 1 ml enzyme source, 1 ml 2% casein solution, 1 ml 01 M phosphate buffer and 1 ml of either the relevant level of surfactant or an equivalent amount of buffer. Ten levels of the two surfactants, polyoxyethylene sorbitan monoleate (Tween 80) and polyoxyethylene sorbitan monastearate (Tween 60) were tested, viz 0, 0.08, 0.16, 0.24, 0.32, 0.4, 0.8, 1.2, 1.6, and, 2.0% surfactant in the assay mixture.
The protease activity incubations were performed in 50 ml plastic centrifuge tubes, at 37° C. and under a stream of carbon dioxide gas. After 1.5 hr, 1 ml of the assay mixture was removed for the determination of thiols (SH) and disulfides (SS) (Sasago et al., “Determination of sulfhydryl and disulfide groups in milk by p-chloromercuribenzoate-diathizone method,” J. Dairy Sci. 46:1348-1351 (1963)). At the end of 2 hr incubation, the reaction was stopped with 1 ml of 15% TCA (trichloroacetic acid) solution, cooled to 4° C. under an icebath, and centrifuged at 10,000 for 10 min. The free amino acids in the supernatant were assayed using the ninhydrin method (Rosen, “a Modified Colorimetric Analysis For Amino Acids,” Arch. Biochim. Biophys. 67:10 (1957)). The optimal surfactant inclusion level was calculated by direct linear plots on the assumption that the Michaellis-Menten equation applied.

[3] abbreviates: direct linear plots, Michaelis-Menten assumed.

For the substance “polyoxyethylene sorbitan monoleate [Tween 80]”, in the experiment with wethers, the “Digestibility, Acid detergent fibre” value is on record as 52.68b (0.4) %; the “Digestibility, Crude protein” value is 61.25b (0.5) %; the “Digestibility, Dry matter” value was 64.70b (0.8) %; the “Digestibility, Neutral detergent fibre” value is given as 60.63b (0.7) %. Moreover, in the experiment on wethers, the “Increase in digestibility compared to control” value was found to be 18%, the “Increase in intake compared to control” value was 5% and the Intake is recorded as 2.06b (0.1) % of the body weight. In addition, in experiment [1] (0.05% additive), the “Microbial protein adsorption extent” value worked out at 1.12b μg/mg and the “Microbial protein adsorption rate” value is recorded as 0.032b (0.01) μg/mg/min. For the same substance, in experiment [1] (0.10% additive), the “Microbial protein adsorption extent” value amounted to 1.21c μg/mg and the “Microbial protein adsorption rate” value was 0.034c (0.02) μg/mg/min. Further, in experiment [1] (0.25% additive), the “Microbial protein adsorption extent” value is 1.18c μg/mg and the “Microbial protein adsorption rate” value is 0.035c (0.01) μg/mg/min. Also, in experiment [1] (0.50% additive), the “Microbial protein adsorption extent” value is 1.19c μg/mg and the “Microbial protein adsorption rate” value is recorded as 0.034c (0.02) μg/mg/min. For the same substance, the “Initial rate of proteinase activation” value in experiment [2] (control=0) was 163.5%. Moreover, in experiment [2] (setting [3]), the “Km (additive conc.), proteinase activation” value is reported as 0.20 ± 0.03b % and the “Vmax (maximum proteinase activation)” value was found to be 166.8 ± 8.9b %/unit additive conc.

These data come from patent publication US20040076659A1, “Additive for livestock feeds” (priority 1994, published 2004).
